From the supplement of paper PMC4862054

What was measured:
Test in all cases: normalised viability (% of control), CellTiter-Blue; higher = more viable cells (about 100 = DMSO control)
Conditions in all cases: incubation time: 72 h
CAL-148 [1] = system: CAL-148
Method in brief: (§1)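 Breast cancer cell lines were treated for 72 h in 384-well format and measured by CellTiter-Blue fluorescence at 560/590 nm. Results were normalised per plate to vehicle (100) and a positive kill control (0). The entry is normalised viability at a single listed concentration of the series.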

CAL-85-1 [2] = system: CAL-85-1
Method in brief: as §1

DU-4475 [3] = system: DU-4475
Method in brief: as §1

MDA-MB-453 [4] = system: MDA-MB-453
Method in brief: as §1

BT-474 = system: BT-474
Method in brief: as §1

BT-549 = system: BT-549
Method in brief: as §1

CAL-120 = system: CAL-120
Method in brief: as §1

CAL-51 [5] = system: CAL-51
Method in brief: as §1

CAL-85-1 [6] = system: CAL-85-1; remark: listed apart in the source
Method in brief: as §1

DU-4475 [7] = system: DU-4475; remark: listed apart in the source
Method in brief: as §1

HCC1143 = system: HCC1143
Method in brief: as §1

HCC1599 = system: HCC1599
Method in brief: as §1

HCC1937 = system: HCC1937
Method in brief: as §1

Hs578T = system: Hs578T
Method in brief: as §1

MDA-MB-231 = system: MDA-MB-231
Method in brief: as §1

MDA-MB-436 = system: MDA-MB-436
Method in brief: as §1

MDA-MB-453 [8] = system: MDA-MB-453; remark: listed apart in the source
Method in brief: as §1

MDA-MB-468 = system: MDA-MB-468
Method in brief: as §1

MFM-223 = system: MFM-223
Method in brief: as §1

SK-BR-3 = system: SK-BR-3
Method in brief: as §1

CAL-148 [9] = system: CAL-148; remark: listed apart in the source
Protocol: (§2)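 DSRT, CellTiter-Blue viability, 72 h incubation. Signal is normalised to DMSO and benzethonium chloride controls. Value is the normalised response at dose 9.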

CAL-51 [10] = system: CAL-51; remark: listed apart in the source
Protocol: as §2

CAL-85-1 [11] = system: CAL-85-1; remark: listed apart in the source
Protocol: as §2

DU-4475 [12] = system: DU-4475; remark: listed apart in the source
Protocol: as §2

HDQ-P1 = system: HDQ-P1
Protocol: as §2

MDA-MB-453 [13] = system: MDA-MB-453; remark: listed apart in the source
Protocol: as §2

O=C(Cc1ccc(-c2ccc(OCCN3CCOCC3)cc2)cn1)NCc1ccccc1 [KX2-391]
Conditions	normalised viability [%]
BT-474, 10 nM	114
BT-474, 1000 nM	56
BT-474, 10000 nM	66.7
BT-549, 10 nM	95.5
BT-549, 1000 nM	17.5
BT-549, 10000 nM	20.7
CAL-51 [5], 3 nM	114
CAL-51 [5], 30 nM	105
CAL-51 [5], 100 nM	20
CAL-51 [10], 10000 nM	12.5
CAL-85-1 [2], 3000 nM	42.1
CAL-85-1 [6], 3 nM	92.5
CAL-85-1 [6], 30 nM	65.1
CAL-85-1 [6], 100 nM	34.2
CAL-85-1 [11], 10000 nM	45.4
CAL-120, 10 nM	93.5
CAL-120, 1000 nM	21.3
CAL-120, 10000 nM	21.3
CAL-148 [1], 3000 nM	24.2
CAL-148 [9], 10000 nM	34.2
DU-4475 [3], 3000 nM	8.65
DU-4475 [7], 3 nM	83.8
DU-4475 [7], 30 nM	80.5
DU-4475 [7], 100 nM	16.1
DU-4475 [12], 10000 nM	15.5
HCC1143, 10 nM	79.3
HCC1143, 1000 nM	32.3
HCC1143, 10000 nM	39.5
HCC1599, 10 nM	95.6
HCC1599, 1000 nM	62.3
HCC1599, 10000 nM	58.7
HCC1937, 10 nM	108
HCC1937, 1000 nM	16.9
HCC1937, 10000 nM	15.9
HDQ-P1, 10000 nM	47.6
Hs578T, 10 nM	94.4
Hs578T, 1000 nM	15.4
Hs578T, 10000 nM	20.5
MDA-MB-231, 10 nM	98.1
MDA-MB-231, 1000 nM	18.1
MDA-MB-231, 10000 nM	16.3
MDA-MB-436, 10 nM	98.3
MDA-MB-436, 1000 nM	56.6
MDA-MB-436, 10000 nM	39.2
MDA-MB-453 [4], 3000 nM	36.2
MDA-MB-453 [8], 3 nM	114
MDA-MB-453 [8], 30 nM	72.6
MDA-MB-453 [8], 100 nM	25
MDA-MB-453 [13], 10000 nM	38.1
MDA-MB-468, 10 nM	104
MDA-MB-468, 1000 nM	38.9
MDA-MB-468, 10000 nM	51.8
MFM-223, 10 nM	91.2
MFM-223, 1000 nM	40.7
MFM-223, 10000 nM	26.9
SK-BR-3, 10 nM	102
SK-BR-3, 1000 nM	19.9
SK-BR-3, 10000 nM	19.1

N#Cc1ccc(C(c2ccc(C#N)cc2)n2cncn2)cc1 [Letrozole]
Conditions	normalised viability [%]
BT-474, 10 nM	105
BT-474, 1000 nM	109
BT-474, 10000 nM	109
BT-549, 10 nM	83.5
BT-549, 1000 nM	84
BT-549, 10000 nM	90.5
CAL-51 [5], 3 nM	115
CAL-51 [5], 30 nM	107
CAL-51 [5], 100 nM	103
CAL-51 [10], 10000 nM	96.3
CAL-85-1 [2], 3000 nM	90
CAL-85-1 [6], 3 nM	86.9
CAL-85-1 [6], 30 nM	85
CAL-85-1 [6], 100 nM	87.1
CAL-85-1 [11], 10000 nM	70.3
CAL-120, 10 nM	72.4
CAL-120, 1000 nM	86.6
CAL-120, 10000 nM	80.2
CAL-148 [1], 3000 nM	95.5
CAL-148 [9], 10000 nM	92.4
DU-4475 [3], 3000 nM	85.8
DU-4475 [7], 3 nM	94.6
DU-4475 [7], 30 nM	81.4
DU-4475 [7], 100 nM	82
DU-4475 [12], 10000 nM	82.9
HCC1143, 10 nM	85.4
HCC1143, 1000 nM	90.7
HCC1143, 10000 nM	78.4
HCC1599, 10 nM	81.2
HCC1599, 1000 nM	70.7
HCC1599, 10000 nM	81.9
HCC1937, 10 nM	81.8
HCC1937, 1000 nM	82.6
HCC1937, 10000 nM	82
HDQ-P1, 10000 nM	93
Hs578T, 10 nM	91.8
Hs578T, 1000 nM	91
Hs578T, 10000 nM	98.9
MDA-MB-231, 10 nM	86.3
MDA-MB-231, 1000 nM	87.8
MDA-MB-231, 10000 nM	95.5
MDA-MB-436, 10 nM	113
MDA-MB-436, 1000 nM	96.1
MDA-MB-436, 10000 nM	105
MDA-MB-453 [4], 3000 nM	105
MDA-MB-453 [8], 3 nM	105
MDA-MB-453 [8], 30 nM	76.8
MDA-MB-453 [8], 100 nM	93.1
MDA-MB-453 [13], 10000 nM	51.8
MDA-MB-468, 10 nM	101
MDA-MB-468, 1000 nM	115
MDA-MB-468, 10000 nM	92.7
MFM-223, 10 nM	58.8
MFM-223, 1000 nM	70.5
MFM-223, 10000 nM	49.2
SK-BR-3, 10 nM	79.4
SK-BR-3, 1000 nM	103
SK-BR-3, 10000 nM	85.2

CCN(CC)CCCC(C)Nc1c2ccc(Cl)cc2nc2ccc(OC)cc12 (configuration not stated) [Mepacrine]
Conditions	normalised viability [%]
BT-474, 0.99 nM	113
BT-474, 10 nM	111
BT-474, 99 nM	104
BT-474, 990 nM	41.1
BT-474, 1000 nM	116
BT-474, 10000 nM	2.65
BT-549, 0.99 nM	87
BT-549, 10 nM	87.2
BT-549, 99 nM	82.2
BT-549, 990 nM	37.6
BT-549, 1000 nM	88.9
BT-549, 10000 nM	17.8
CAL-51 [5], 0.297 nM	89.1
CAL-51 [5], 2.97 nM	91.4
CAL-51 [5], 3 nM	105
CAL-51 [5], 9.9 nM	96.2
CAL-51 [5], 30 nM	97.8
CAL-51 [5], 100 nM	93.3
CAL-51 [10], 990 nM	34.9
CAL-51 [10], 10000 nM	12.3
CAL-85-1 [2], 297 nM	87.8
CAL-85-1 [2], 3000 nM	59.5
CAL-85-1 [6], 0.297 nM	114
CAL-85-1 [6], 2.97 nM	95.7
CAL-85-1 [6], 3 nM	94.3
CAL-85-1 [6], 9.9 nM	98.9
CAL-85-1 [6], 30 nM	88.1
CAL-85-1 [6], 100 nM	105
CAL-85-1 [11], 990 nM	44.1
CAL-85-1 [11], 10000 nM	15.1
CAL-120, 0.99 nM	114
CAL-120, 10 nM	102
CAL-120, 99 nM	109
CAL-120, 990 nM	16.3
CAL-120, 1000 nM	89.6
CAL-120, 10000 nM	5.76
CAL-148 [1], 297 nM	73.2
CAL-148 [1], 3000 nM	56.4
CAL-148 [9], 990 nM	35.4
CAL-148 [9], 10000 nM	12.4
DU-4475 [3], 297 nM	84
DU-4475 [3], 3000 nM	69.1
DU-4475 [7], 0.297 nM	112
DU-4475 [7], 2.97 nM	88
DU-4475 [7], 3 nM	92.6
DU-4475 [7], 9.9 nM	101
DU-4475 [7], 30 nM	89.1
DU-4475 [7], 100 nM	96.9
DU-4475 [12], 990 nM	30.9
DU-4475 [12], 10000 nM	4.09
HCC1143, 0.99 nM	123
HCC1143, 10 nM	93.5
HCC1143, 99 nM	114
HCC1143, 990 nM	45
HCC1143, 1000 nM	96.1
HCC1143, 10000 nM	35.5
HCC1599, 0.99 nM	105
HCC1599, 10 nM	85.5
HCC1599, 99 nM	82.1
HCC1599, 990 nM	67.3
HCC1599, 1000 nM	79.5
HCC1599, 10000 nM	30.9
HCC1937, 0.99 nM	118
HCC1937, 10 nM	108
HCC1937, 99 nM	78.7
HCC1937, 990 nM	15.8
HCC1937, 1000 nM	63.6
HCC1937, 10000 nM	10.7
HDQ-P1, 990 nM	23.8
HDQ-P1, 10000 nM	6.19
Hs578T, 0.99 nM	111
Hs578T, 10 nM	107
Hs578T, 99 nM	118
Hs578T, 990 nM	38.5
Hs578T, 1000 nM	122
Hs578T, 10000 nM	21.6
MDA-MB-231, 0.99 nM	89.4
MDA-MB-231, 10 nM	102
MDA-MB-231, 99 nM	81.4
MDA-MB-231, 990 nM	8.45
MDA-MB-231, 1000 nM	65
MDA-MB-231, 10000 nM	7.28
MDA-MB-436, 0.99 nM	109
MDA-MB-436, 10 nM	101
MDA-MB-436, 99 nM	105
MDA-MB-436, 990 nM	33
MDA-MB-436, 1000 nM	81.4
MDA-MB-436, 10000 nM	9.64
MDA-MB-453 [4], 297 nM	89
MDA-MB-453 [4], 3000 nM	43.1
MDA-MB-453 [8], 0.297 nM	106
MDA-MB-453 [8], 2.97 nM	107
MDA-MB-453 [8], 3 nM	114
MDA-MB-453 [8], 9.9 nM	100
MDA-MB-453 [8], 30 nM	96.7
MDA-MB-453 [8], 100 nM	102
MDA-MB-453 [13], 990 nM	15.7
MDA-MB-453 [13], 10000 nM	2.2
MDA-MB-468, 0.99 nM	108
MDA-MB-468, 10 nM	104
MDA-MB-468, 99 nM	106
MDA-MB-468, 990 nM	43.4
MDA-MB-468, 1000 nM	94.7
MDA-MB-468, 10000 nM	5.97
MFM-223, 0.99 nM	107
MFM-223, 10 nM	101
MFM-223, 99 nM	94.8
MFM-223, 990 nM	44.5
MFM-223, 1000 nM	100
MFM-223, 10000 nM	20.9
SK-BR-3, 0.99 nM	100
SK-BR-3, 10 nM	110
SK-BR-3, 99 nM	104
SK-BR-3, 990 nM	27.9
SK-BR-3, 1000 nM	101
SK-BR-3, 10000 nM	2.49
